These results are taken from patent US5808109A, “Compounds that inhibit complement and/or suppress immune activity” (T Cell Sciences, Inc., priority 1995, dated 1998).

Series [1] is described as follows: Inhibition of natural killer activity, 51Cr release cytotoxicity assay. The following applies: human, k562 cells, read-out: Spont. Release Target Cells Alone (K562). Format: cell-based. As to the method:
(§1) Compounds were tested for their effects on the ability of peripheral blood mononuclear cells to lyse NK-sensitive target cells, K562. NK activity was determined using ^51 Cr-labeled K562 erythromyeloid leukemia cells as targets, and normal peripheral blood mononuclear cells as effector cells, in a four hour cytotoxicity assay. Effector cells were isolated from fresh blood by Ficoll-Hypaque gradient centrifugation, and 100 μl of a 5×10^5 cell/well suspension were added to each well of a V-bottom microtiter plate. The compound 11a was diluted in RPMI 1640 medium containing 10% fetal calf serum and dispensed at 100 μl per well. Target cells (K562) were labeled for 30 minutes with 100 μCi of ^51 Cr, washed thoroughly and dispensed in a 20 μl volume at 10^4 cells/well. […] The microtiter plate was centrifuged at 50×g for 5 minutes and incubated in a humidified chamber with 5% CO2 at 37° C. After 4 hours, 100 μl were removed from each well and the radioactivity was measured with a LKB 1275 gamma counter. The percent specific lysis was calculated as follows:
(§2) % specific lysis=[(EXP-SR)/(TOTAL-B)]×100
(§3) where EXP (experimental value) was obtained using effector and target cells; SR (the spontaneous release) was obtained from target cells incubated with media alone; TOTAL release was obtained by hypotonic lysis in water; and B represents instrumental background. Means were calculated from quadruplicate wells and the standard deviations never exceeded 10%. Viability of the effector cells incubated with the test compound was determined by trypan blue exclusion.

Series [2] deals with K562 erythromyeloid leukemia cells (NK-sensitive target cells). The series is described as above. The following applies: effector:target 50:1, 4 h. Format: cell-based. As to the method: as §1, §2, §3
In the next series the test system is CD8 protein release. The experiment in a line: CD8 protein release into supernatant of stimulated PBL cultures (enzyme immunoassay). The format is cell-based, human. The following applies: stimulated PBL cultures (FIG. 7). As to the method: Release of cell surface interleukin-2 receptor (IL-2R) or CD8 antigen from lymphocytes is a correlate of T cell activation (Rubin et al. J. Immunol. 1985, 135, 3172-77; Rubin et al. Fed. proc. 1985 44, 946; Fujimoto, J. et al. J. Exp. Med. 1983, 159, 752-66; Tomkinson, B. et al. 2d Annual Conference on Clinical Immunol. Washington, D.C., Oct. 30, 1987). In some experiments, the level of IL-2R or CD8 protein released into the supernatant of the PBL cultures was assessed by removing aliquots therefrom just prior to pulsing with ^3 H-thymidine. Commercially available enzyme immunoassay kits (CELLFREE™ IL-2R, Cat. No. CK1020, T Cell Sciences, Inc., Cambridge, Mass., or CELL-FREE™ T8/CD8, Cat. No. CK1040, T Cell Sciences) were used to determine the levels of the two analytes.

In the next series the test system is C3a production. As to the kind of experiment: Inhibition of C3a production in human serum (aggregated IgG, RIA). Format: biochemical. The following applies: human serum, concentration inhibiting C3a production 50% relative to control. As to the method:
The ability to inhibit complement was tested by assaying for specific inhibition of C3a and C5a production. For all experiments, a single human serum pool, to be used as a source of complement, was aliquoted and stored frozen at -70° C. Human IgG was heat-aggregated, aliquoted, and stored frozen at -70° C. For each experiment, serum aliquots were equilibrated at 37° C. with varying concentrations of the compounds tested. The classical complement pathway was initiated by the addition of aggregated human IgG. Control samples containing no IgG were always included. After a fixed reaction time of 10 minutes (determined in an earlier time-course study to provide a convenient time interval during which the production of C5a or C3a is nearly complete, i.e., greater than 90%), the levels of the released complement peptides (C5a or C3a) were determined by radioimmunoassay using commercially available radioimmunoassay (RIA) kits (C5a RIA, UpJohn Cat. No. 3250-02; C3a RIA, UpJohn Cat. No. 3245-01; C5a RIA, Amersham Cat. No. RPA.520; C3a RIA, Amersham RPA.518).
Since a competitive immunoassay was used, complement peptide (C5a and C3a) concentrations varied inversely with the counts. The Counts Bound (CB) for a sample was defined as the total counts (in counts per minute, cpm) measured in the pellet minus the counts measured in a nonspecific binding (NSB) control. The NSB control was a sample containing only tracer peptide (^125 I-labelled) and second precipitating antiserum; it contained no C5a- or C3a-specific antiserum.
The y-axis in FIG. 2 represents the fraction inhibition. The fraction inhibition is equal to the Counts Bound (CB) for a "sample," less the CB in the "sample with no added compound," divided by the CB for the "no IgG control" less the CB in the "sample with no added compound." [formula]
FIG. 2 is representative of the data plots obtained from the assays described above.

Series [3] in a line: Viability of effector cells by trypan blue exclusion. Format: cell-based. Conditions: human, peripheral blood mononuclear cells. The procedure: as §3
Series [4] deals with Chinese hamster ovary (CHO) cells. The experiment in a line: CHO cell proliferation, 3H-thymidine incorporation. Format: cell-based. The procedure:
Non-confluent CHO cells were allowed to proliferate for 4 hours in a 96-well plate at a volume of 50 μl per well in the absence or presence of compound 11a at a concentration of 1.8 mM. The cells were pulsed with 0.5 μCi of ^3 H-thymidine per sample for 4 hours, harvested, and the amount of incorporated ^3 H-thymidine was determined by scintillation counting. The CHO cells allowed to proliferate in the absence of added compound yielded a value of 57025 (±7530) CPM. The value for the sample grown in the presence of 11a was 52549 (±6272) CPM.

For the compound `COc1ccc(C(=O)O)c2c1CC1(CCCCC1)O2` [Compound 11a, 7-carboxy-4-methoxyspiro[benzofuran-2(3H)-cyclohexane]], in series [1] (0.4 mM), the % spontaneous 51Cr release of K562 target cells alone at 4 h, 400 µM stood at 5%. The % spontaneous 51Cr release of K562 target cells alone at 4 h, 800 µM in series [1] (0.8 mM) was found to be 5%. The % spontaneous 51Cr release of K562 target cells alone at 4 h, 1600 µM in series [1] (1.6 mM) was 5%. For the same compound, the % spontaneous 51Cr release of K562 target cells alone at 4 h, 3200 µM in series [1] (3.2 mM) came out at 5%. The % spontaneous 51Cr release of K562 target cells alone at 4 h, 6400 µM in series [1] (6.4 mM) amounted to 23%. Besides, the “% Specific Lysis” value is recorded as 7% in series [2] (0.4 mM); 4% in series [2] (0.8 mM); 1% in series [2] (1.6 mM); -1% in series [2] (3.2 mM); 18% in series [2] (6.4 mM). Also, the CD8 protein release result in the series with CD8 protein release is “inhibitor”. The compound also showed a concentration for half-maximal inhibition (IC50) in the series with C3a production of 22 mM. This compound also came in with a viability at 400 µM in series [3] (0.4 mM) of 95%. Moreover, in series [3] (0.8 mM), the viability at 800 µM is 95%. Further, the viability at 1600 µM in series [3] (1.6 mM) is 95%. For the same compound, the viability at 3200 µM in series [3] (3.2 mM) was 76%. Besides, the viability at 6400 µM in series [3] (6.4 mM) came out at 5%. For the same compound, the “inhibition of CHO cell proliferation” value in series [4] is recorded as “no inhibition”. Besides, the “incorporated 3H-thymidine” value in series [4] (1.8 mM, CHO cells) was 52549 (±6272) CPM.

The term IC50 denotes the concentration needed to halve the response being measured. As a reminder, the viability is the share of living cells, or the viability signal relative to a control. Read a high viability as less harm to the cells.
